In US20130122098A1, “Method and composition to improve absorption of therapeutic agents” (Bayer HealthCare LLC, priority 2011, published 2013):

Columns and labels:
[1] = Compatibility: degradation products of aspirin/carbonate blends by HPLC; assay type: physicochemical
Protocol: The degradation products of various combinations of aspirin and various carbonates were determined for different combinations of aspirin and different grades and sources of carbonates to evaluate the compatibility and stability. Milling for about fifteen minutes appeared to slightly induce the production of free salicylic acid (FSA), but not to a significant extent. […] The results are shown in Table 3 (all blend percentages are weight percentages obtained using High Performance Liquid Chromatography (HPLC))

[2] = Particle size of milled aspirin by laser diffraction (MS 2000 Hydro S); assay type: physicochemical
Protocol: Several techniques were evaluated to determine the preferred type of milling techniques for use with aspirin in accordance with the invention. All sizes were determined using Laser Diffraction on a model MS 2000 Hydro S machine. The “d50” value is the average particle size of the milled sample, and “d90” represents the average particle size of at least 90% of the particles in the milled sample. Airjet, bead, and ball mill techniques were selected as being the most preferred in the invention because of the reliability of the techniques and the particle sizes obtained. Bead milling is less preferred because of its higher relative cost. The precipitation method and crystal synthesis also yielded small particle sizes but particles prepared using these techniques tended to agglomerate.

[3] = Air Jet Mill using helium as gas jet

Row | SMILES | Acetyl Salicylic Salicylic Acid ASSA (%) [1] [%] | FSA (%) (free salicylic acid) [1] | Particle size of the milled aspirin, d90 ([2]; Air Jet Mill) [μm] | Particle size of the milled aspirin, d50 [2, 3] [μm] | Particle size of the milled aspirin, d90 [2, 3] [μm] | Particle size of the milled aspirin, d50 ([2]; Crystal Synthesis, no agglomeration) | Particle size of the milled aspirin, d50 ([2]; Crystal Synthesis, with agglomeration of milled particles) | Particle size of the milled aspirin, d50 ([2]; High energy Ball Mill) | Particle size of the milled aspirin, d50 ([2]; Planetary Ball Mill) | Particle size of the milled aspirin, d50 ([2]; Precipitation Method (Solution: Ethanol + 20% ASA with 10% PVP))
1 | CC(=O)Oc1ccccc1C(=O)O [100% Aspirin-Milled 15 min] | 0.00 | 0.00 |  |  |  |  |  |  |  | 
2 | CC(=O)Oc1ccccc1C(=O)O [aspirin] |  |  | < 10 | < 2.6 | < 6.6 | d50~30 μm and no agglomeration | d50~5 to 10 μm, with agglomeration of milled particles | d50~30-40 μm | d50~40 μm | d50~5 μm
